Results reported in PubChem BioAssay AID1013 (Columbia University Molecular Screening Center, 2008).
The source made the active and inactive calls. The rule behind the calls is not given here.

test system: not listed separately; experiment: blockers of VCAM1 upregulation by TNFa – imaging, TNFa stimulus, retest and dose response, confirmation (AID 1013); details: TNFa-stimulated cells, VCAM1 expression imaging; at 2 µM; stronger effect = higher value;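 for cell count: compound on cells 1 h before TNFa then 24 h more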

Row | Structure (SMILES) | inhibition
1 | CCOC(=O)N1CCN(C(=O)COc2ccc(Cl)cc2C)CC1 | 5.2% (inactive)
2 | O=C1CC(N2CCN(Cc3ccc4c(c3)OCO4)CC2)C(=O)N1c1ccccc1 (stereo not drawn) | -11.2% (inactive)
3 | COC(=O)CSc1nc2nc(C)c(Br)cc2[nH]1 | -12.6% (inactive)
4 | Cc1cc(OCc2ccc(F)cc2)nc(-c2ccccc2O)n1 | -12.1% (inactive)
5 | COc1cccc(C(=O)Nc2cccc(-c3nc4ncccc4o3)c2C)c1 | 2.2% (inactive)
6 | COc1ccccc1N(C)S(=O)(=O)c1ccc(C(=O)NCC(C)C)cc1 | -6.5% (inactive)
7 | O=C1N2CCSC2=NC1(Nc1ccccn1)C(F)(F)F (stereo not drawn) | 5.4% (inactive)
8 | NCCN1CCN(CCN)CC1 | -8.3% (inactive)
9 | CCCOc1ccc(/C(O)=C2/C(=O)C(=O)N(CCOC)C2c2cccnc2)cc1 (stereo not drawn) | 8.7% (inactive)
10 | CCC(=O)N1c2ccc(S(=O)(=O)CCC(=O)N3CCn4c3nc3ccccc34)cc2CC1C (stereo not drawn) | -14.1% (inactive)
11 | COc1ccc(NC(=O)N2CCn3c2nc2ccccc23)cc1 | 13% (inactive)
12 | COc1ccc(-c2nc(C#N)c(NCCCN(C)C)o2)cc1OC | -0.1% (inactive)
13 | CCN(Cc1cc2cc(C)ccc2[nH]c1=O)C(=O)c1cccc(OC)c1 | -11.5% (inactive)
14 | CC1Cc2cc(-c3csc(NC(=O)Cc4cccs4)n3)ccc2N1S(C)(=O)=O (stereo not drawn) | 0.8% (inactive)
15 | CCN1CCN(Cc2c(C)[nH]c3ccc(C(=O)OC)cc3c2=O)CC1 | 8.5% (inactive)
16 | CC1CCCN(c2nc3ccsc3c(=O)s2)C1 (stereo not drawn) | -1.5% (inactive)
17 | O=C(Nc1ccccc1)c1nnsc1S(=O)(=O)c1ccc(Cl)cc1 | 20.4% (inactive)
18 | C=CCn1c(N2CCCC2)nc2c1c(=O)[nH]c(=O)n2C | 7.9% (inactive)
19 | Cc1ccc(C)c(NC(=S)NC(NC(=O)Cc2cccc3ccccc23)C(Cl)(Cl)Cl)c1 (stereo not drawn) | 75.3% (inactive)
20 | CN(CC(=O)NCc1ccncc1)S(=O)(=O)c1ccc(F)cc1 | 0.2% (inactive)

Row | Structure (SMILES) | inhibition
21 | COc1ccc2c(c1)CCc1c(C(=O)N3CC4(C)CC3CC(C)(C)C4)noc1-2 (stereo not drawn) | -14.4% (inactive)
22 | CCOC(=O)c1cnn(-c2nc3c(C)cccc3s2)c1C | 11% (inactive)
23 | COc1ccc(/C=N/NC(=O)c2ccccc2Cl)cc1CSc1nc2ccccc2s1 | 13.7% (inactive)
24 | CC(C)(C)SCCNC(=O)CN(c1ccc(F)cc1)S(C)(=O)=O | -12.2% (inactive)
25 | COc1ccc(Cn2c(CCC(=O)O)nc3cccnc32)cc1 | 1.7% (inactive)
26 | COC(=O)c1ccc(-n2nnnc2SCC(=O)N2CCCCC2)cc1 | 0.2% (inactive)
27 | O=C1C(Cc2ccccc2)NC(=S)N1c1ccccc1 (stereo not drawn) | 9.6% (inactive)
28 | NC(=O)c1c(NC(=O)Cc2cccs2)sc2c1CCC2 | -16.5% (inactive)
29 | CCNCC(O)COCC(O)CNCC (stereo not drawn) | 1.3% (inactive)
30 | Cc1ccc(F)cc1NC(=O)c1ccc2c(c1)OCO2 | -22.8% (inactive)
31 | Cc1ccc(NC(=O)c2oc3c(c2C)C(=O)CC(C)(C)C3)cc1 | -0.4% (inactive)
32 | Cn1nc(C(=O)OCC(=O)N2CCc3ccccc32)c2ccccc2c1=O | 4.8% (inactive)
33 | OCCCCNc1cccc2ccccc12 | -3.2% (inactive)
34 | Cc1csc(NC(=O)CSc2nnc(-c3ccc(S(=O)(=O)N4CCCC4)cc3)o2)n1 | 12.9% (inactive)
35 | CCN(CC)C(=O)CN(c1ccc(Cl)cc1)S(=O)(=O)c1ccccc1 | -3.1% (inactive)
36 | O=C(CN1CCN(c2nc(-c3ccc(F)cc3)cs2)CC1)Nc1ccc2c(c1)OCO2 | 16.2% (inactive)
37 | Cc1cc(C)cc(NC(=O)CC2NCCNC2=O)c1 (stereo not drawn) | 7.4% (inactive)
38 | CCOC(=O)c1cnc(-n2nc(C)cc2C)nc1N1CCOCC1 | 0.6% (inactive)
39 | CC(NC(=O)COC(=O)Cc1ccsc1)C1CC2CCC1C2 (stereo not drawn) | 3.4% (inactive)

same assay, conditions: TNFa-stimulated cells, VCAM1 expression imaging; cell count; at 10 µM; stronger effect = lower value

Row | Structure (SMILES) | cell count [%]
40 | O=C(CS(=O)c1ccc(C(F)(F)F)cc1[N+](=O)[O-])Oc1ccc(Cl)cc1 (stereo not drawn) | 111
41 | CCN(CC)c1ccc2cc(-c3nc4ccccc4n3C)c(=O)oc2c1 | 106
42 | COc1ccc(C(=O)C(CN2CCOCC2)c2ccccc2)cc1 (stereo not drawn) | 73.8
43 | O=C(c1ccc([N+](=O)[O-])cc1)N(Cc1ccc(Cl)cc1)N1C(=O)CCCC1=O | 91.5
44 | CCOC(=O)Cc1cc(-c2ccc(O)cc2)nc2ccc3ccccc3c12 | 100
45 | O=C(/C(=C/c1ccc(Cl)cc1)c1nc2ccccc2[nH]1)c1cccs1 | 83.7
46 | NC(=S)N/N=C/c1ccc(-c2cc(Cl)ccc2Cl)o1 | 90.8
47 | Cc1ccc(C)c(NC(=S)NC(NC(=O)Cc2cccc3ccccc23)C(Cl)(Cl)Cl)c1 (stereo not drawn) | 99.3

test system: TNFa-stimulated cells, VCAM1 expression imaging; experiment: as above; details: not given

Row | IC50 | Structure (SMILES)
48 | > 10000 nM (inactive) | O=C(CS(=O)c1ccc(C(F)(F)F)cc1[N+](=O)[O-])Oc1ccc(Cl)cc1 (stereo not drawn)
49 | > 10000 nM (inactive) | CCN(CC)c1ccc2cc(-c3nc4ccccc4n3C)c(=O)oc2c1
50 | 2680 nM | COc1ccc(C(=O)C(CN2CCOCC2)c2ccccc2)cc1 (stereo not drawn)
51 | > 10000 nM (inactive) | O=C(c1ccc([N+](=O)[O-])cc1)N(Cc1ccc(Cl)cc1)N1C(=O)CCCC1=O
52 | 550 nM | CCCCCCCCCCn1c2c(c(=N)c3c1CCC3)CCC2
53 | 2300 nM | Cc1ccc(C(=O)OCn2ncc(Cl)c(Cl)c2=O)cc1
